# According to patent publication USRE40086E1, “Method for treating bacterial infection with novel 7-substituted-9-substituted amino 6-demethyl-6-deoxytetracyclines” (Wyeth Holdings Corporation, priority 1991, dated 2008):
# Tests used:
# [1] = test system: S. aureus UBMS 88-5 (tetM); assay: MIC, agar dilution; assay type: cell-based; settings: S. aureus UBMS 88-5 TetM; Table IA; unit assumed
# [2] = test system: S. aureus UBMS 88-4 (Sensitive); assay: MIC, agar dilution; assay type: cell-based; settings: S. aureus UBMS 88-4; Table IA; unit assumed
# [3] = test system: S. aureus UBMS 90-1 (tetM); assay: MIC, agar dilution; assay type: cell-based; settings: S. aureus UBMS 90-1 TetM; Table IA; unit assumed
# [4] = test system: S. aureus UBMS 90-2 (tetM); assay: MIC, agar dilution; assay type: cell-based; settings: S. aureus UBMS 90-2 TetM; Table IA; unit assumed
# [5] = test system: S. aureus UBMS 90-3 (Sensitive); assay: MIC, agar dilution; assay type: cell-based; settings: S. aureus UBMS 90-3; Table IA; unit assumed
# [6] = test system: S. aureus UBMS 88-7 (tetK); assay: MIC, agar dilution; assay type: cell-based; settings: S. aureus UBMS 88-7 TetK; Table IA; unit assumed
# [7] = test system: S. aureus IVES 2943 (meth. resistant); assay: MIC, agar dilution; assay type: cell-based; settings: S. aureus IVES 2943; Table IA; unit assumed
# [8] = test system: S. aureus IVES 1983 (meth. resistant); assay: MIC, agar dilution; assay type: cell-based; settings: S. aureus IVES 1983; Table IA; unit assumed
# [9] = test system: S. aureus ATCC 29213 (Sensitive); assay: MIC, agar dilution; assay type: cell-based; settings: S. aureus ATCC 29213; Table IA; unit assumed
# [10] = test system: S. aureus Smith (Sensitive); assay: MIC, agar dilution; assay type: cell-based; settings: S. aureus SMITH (MP); Table IA; unit assumed
# [11] = test system: S. haemolyticus AVAH 88-3; assay: MIC, agar dilution; assay type: cell-based; settings: S. hemolyticus AVHAH 88-3; Table IA; unit assumed
# [12] = test system: E. faecalis 12201; assay: MIC, agar dilution; assay type: cell-based; settings: Enterococcus 12201; Table IA; unit assumed
# [13] = test system: E. faecalis ATCC 29212; assay: MIC, agar dilution; assay type: cell-based; settings: E. faecalis ATCC 29212; Table IA; unit assumed
# [14] = test system: E. coli UBMS 88-1 (tetB); assay: MIC, agar dilution; assay type: cell-based; settings: E. coli UBMS 88-1 TetB; Table IA; unit assumed
# [15] = test system: E. coli UBMS 89-1 (tetM); assay: MIC, agar dilution; assay type: cell-based; settings: E. coli UBMS 89-1 TetM; Table IA; unit assumed
# [16] = test system: E. coli UBMS 89-2 (Sensitive); assay: MIC, agar dilution; assay type: cell-based; settings: E. coli UBMS 89-2 Tet Sens.; Table IA; unit assumed
# [17] = test system: E. coli ATCC 25922; assay: MIC, agar dilution; assay type: cell-based; settings: E. coli ATCC 25922; Table IA; unit assumed
# [18] = test system: E. coli UBMS 90-4 (tetM); assay: MIC, agar dilution; assay type: cell-based; settings: E. coli UBMS 90-4 TetM; Table IA; unit assumed
# [19] = test system: E. coli J3272 Tet sens.; assay: MIC, agar dilution (Table IA); assay type: cell-based; settings: unit assumed
# [20] = test system: E. coli MC4100 TetB; assay: MIC, agar dilution (Table IA); assay type: cell-based; settings: unit assumed
# [21] = test system: E. coli PRP1 TetA; assay: MIC, agar dilution (Table IA); assay type: cell-based; settings: unit assumed
# [22] = test system: E. coli J3272 TetC; assay: MIC, agar dilution (Table IA); assay type: cell-based; settings: unit assumed
# [23] = test system: E. coli J2175; assay: MIC, agar dilution (Table IA); assay type: cell-based; settings: unit assumed
# [24] = test system: E. coli BAJ9003; assay: MIC, agar dilution (Table IA); assay type: cell-based; settings: unit assumed
# [25] = test system: E. coli UBMS 90-5; assay: MIC, agar dilution (Table IA); assay type: cell-based; settings: unit assumed
# [26] = test system: E. coli #311 (MP); assay: MIC, agar dilution (Table IA); assay type: cell-based; settings: unit assumed
# [27] = test system: E. coli J3272 TetD; assay: MIC, agar dilution (Table IA); assay type: cell-based; settings: unit assumed
# [28] = test system: S. mariescens FDOR 8733; assay: MIC, agar dilution (Table IA); assay type: cell-based; settings: unit assumed
# [29] = test system: X. maltophilia NEMC 87210; assay: MIC, agar dilution (Table IA); assay type: cell-based; settings: unit assumed
# [30] = test system: Ps. acruginosa ATCC 27853; assay: MIC, agar dilution (Table IA); assay type: cell-based; settings: unit assumed
# [31] = test system: S. aureus NEMC 8769/89-4; assay: MIC, agar dilution (Table IA); assay type: cell-based; settings: unit assumed
# [32] = test system: S. aureus ROSE (MP); assay: MIC, agar dilution (Table IA); assay type: cell-based; settings: unit assumed
# [33] = test system: Wild Type S30 extract, E. coli strain MRE600 (tetracycline sensitive); assay: E. coli in vitro transcription and protein translation, 35S-methionine incorporation (Table VIII)
# [34] = test system: TetM S30 extract, derivative of E. coli MRE600 containing the tetM determinant; assay: as above
# [35] = test system: E. coli MC4100 Tet sens.; assay: MIC, agar dilution (Table IA); assay type: cell-based; settings: unit assumed
# [36] = test system: S. aureus SMITH (sens); assay: In vivo antibacterial evaluation, acute lethal infection in mice; settings: Oral
# Excerpt: In Vivo Antibacterial Evaluation (Table VII)
SMILES,Antibacterial activity (MIC) [1] [µg/mL],Antibacterial activity (MIC) [2] [µg/mL],Antibacterial activity (MIC) [3] [µg/mL],Antibacterial activity (MIC) [4] [µg/mL],Antibacterial activity (MIC) [5] [µg/mL],Antibacterial activity (MIC) [6] [µg/mL],Antibacterial activity (MIC) [7] [µg/mL],Antibacterial activity (MIC) [8] [µg/mL],Antibacterial activity (MIC) [9] [µg/mL],Antibacterial activity (MIC) [10] [µg/mL],Antibacterial activity (MIC) [11] [µg/mL],Antibacterial activity (MIC) [12] [µg/mL],Antibacterial activity (MIC) [13] [µg/mL],Antibacterial activity (MIC) [14] [µg/mL],Antibacterial activity (MIC) [15] [µg/mL],Antibacterial activity (MIC) [16] [µg/mL],Antibacterial activity (MIC) [17] [µg/mL],Antibacterial activity (MIC) [18] [µg/mL],Antibacterial activity (MIC) [20] [µg/mL],Antibacterial activity (MIC) [21] [µg/mL],also measured
CCNCC(=O)Nc1cc(N(C)C)c2c(c1O)C(=O)C1=C(O)[C@]3(O)C(=O)C(C(N)=O)=C(O)[C@@H](N(C)C)C3CC1C2.Cl.Cl (stereo partly drawn) [OO],1,1,1,0.5,0.5,8,8,8,1,0.5,1,0.25,0.25,1,1,1,1,0.5,1,2,Antibacterial activity (MIC) [19]: 1 µg/mL; Antibacterial activity (MIC) [22]: 2 µg/mL; Antibacterial activity (MIC) [23]: 1 µg/mL; Antibacterial activity (MIC) [24]: 0.12 µg/mL; Antibacterial activity (MIC) [25]: 1 µg/mL; Antibacterial activity (MIC) [26]: 1 µg/mL; Antibacterial activity (MIC) [27]: 0.5 µg/mL; Antibacterial activity (MIC) [28]: 8 µg/mL; Antibacterial activity (MIC) [29]: 2 µg/mL; Antibacterial activity (MIC) [30]: 16 µg/mL; Antibacterial activity (MIC) [31]: 0.5 µg/mL; Antibacterial activity (MIC) [32]: 8 µg/mL; % INHIBITION Wild Type S30 ([33]; 0.06 mg/ml): 94%; % INHIBITION Wild Type S30 ([33]; 0.2 mg/ml): 97%; % INHIBITION Wild Type S30 ([33]; 1.0 mg/ml): 99%; % INHIBITION TetM S30 ([34]; 0.06 mg/ml): 87%; % INHIBITION TetM S30 ([34]; 0.2 mg/ml): 95%; % INHIBITION TetM S30 ([34]; 1.0 mg/ml): 99%
"CN(C)c1cc(NC(=O)Cn2ccnc2)c(O)c2c1CC1CC3[C@H](N(C)C)C(O)=C(C(N)=O)C(=O)[C@@]3(O)C(O)=C1C2=O.Cl.Cl (stereo partly drawn) [VV, [7S-(7alpha,10aalpha)]-N-[9-(Aminocarbonyl)-4,7-bis(dimethylamino)-5,5a,6,6a,7,10,10a,12-octahydro-1,8,10a,11-tetrahydroxy-10,12-dioxo-2-naphthacenyl]-1H-imidazole-1-acetamide dihydrochloride]",32,8,32,16,4,32,> 32,> 32,8,4,> 32,4,4,> 32,> 32,> 32,> 32,> 32,> 32,> 32,Antibacterial activity (MIC) [19]: > 32 µg/mL; Antibacterial activity (MIC) [22]: > 32 µg/mL; Antibacterial activity (MIC) [23]: > 32 µg/mL; Antibacterial activity (MIC) [24]: 1 µg/mL; Antibacterial activity (MIC) [25]: > 32 µg/mL; Antibacterial activity (MIC) [26]: > 32 µg/mL; Antibacterial activity (MIC) [27]: > 32 µg/mL; Antibacterial activity (MIC) [28]: > 32 µg/mL; Antibacterial activity (MIC) [29]: > 32 µg/mL; Antibacterial activity (MIC) [30]: > 32 µg/mL; Antibacterial activity (MIC) [31]: 4 µg/mL; Antibacterial activity (MIC) [32]: > 32 µg/mL; % INHIBITION Wild Type S30 ([33]; 0.06 mg/ml): 91%; % INHIBITION Wild Type S30 ([33]; 0.2 mg/ml): 93%; % INHIBITION Wild Type S30 ([33]; 1.0 mg/ml): 99%; % INHIBITION TetM S30 ([34]; 0.06 mg/ml): 79%; % INHIBITION TetM S30 ([34]; 0.2 mg/ml): 92%; % INHIBITION TetM S30 ([34]; 1.0 mg/ml): 98%
CN(C)CC(=O)Nc1cc(N(C)C)c2c(c1O)C(=O)C1=C(O)[C@]3(O)C(=O)C(C(=O)NCN4CCOCC4)=C(O)[C@@H](N(C)C)C3CC1C2 (stereo partly drawn) [GGG],0.12,0.12,0.25,0.12,0.12,1,2,2,0.25,0.12,0.5,0.12,0.06,0.25,0.12,0.25,0.12,0.25,0.25,1,Antibacterial activity (MIC) [35]: 0.06 µg/mL; Antibacterial activity (MIC) [22]: 1 µg/mL; Antibacterial activity (MIC) [23]: 0.25 µg/mL; Antibacterial activity (MIC) [24]: 0.03 µg/mL; Antibacterial activity (MIC) [25]: 0.25 µg/mL; Antibacterial activity (MIC) [26]: 0.25 µg/mL; Antibacterial activity (MIC) [27]: 0.12 µg/mL; Antibacterial activity (MIC) [28]: 4 µg/mL; Antibacterial activity (MIC) [29]: 0.5 µg/mL; Antibacterial activity (MIC) [30]: 8 µg/mL; Antibacterial activity (MIC) [31]: 0.25 µg/mL; Antibacterial activity (MIC) [32]: 2 µg/mL
"CCN(CC)CC(=O)Nc1cc(N(C)C)c2c(c1O)C(=O)C1=C(O)[C@]3(O)C(=O)C(C(N)=O)=C(O)[C@@H](N(C)C)C3CC1C2.Cl.Cl (stereo partly drawn) [RR, [4S-(4alpha,12aalpha))-9-([(Diethylamino)acetyl)amino]-4,7-Bis(dimethylamino)-1,4,4a,5,5a,6,11,12a-octahydro-3,10,12,12a-tetrahydroxy-1,11-dioxo-2-naphthacenecarboxamide dihydrochloride]",0.25,0.25,0.25,0.25,0.25,0.5,1,0.25,0.12,0.25,0.5,0.12,0.12,1,0.25,1,0.5,0.5,1,2,ED50 [36]: 8 to 16 mg/kg; Antibacterial activity (MIC) [19]: 1 µg/mL; Antibacterial activity (MIC) [22]: 1 µg/mL; Antibacterial activity (MIC) [23]: 1 µg/mL; Antibacterial activity (MIC) [24]: 0.06 µg/mL; Antibacterial activity (MIC) [25]: 1 µg/mL; Antibacterial activity (MIC) [26]: 0.5 µg/mL; Antibacterial activity (MIC) [27]: 0.25 µg/mL; Antibacterial activity (MIC) [28]: 4 µg/mL; Antibacterial activity (MIC) [29]: 0.25 µg/mL; Antibacterial activity (MIC) [30]: 32 µg/mL; Antibacterial activity (MIC) [31]: 0.06 µg/mL; Antibacterial activity (MIC) [32]: 1 µg/mL; % INHIBITION Wild Type S30 ([33]; 0.06 mg/ml): 93%; % INHIBITION Wild Type S30 ([33]; 0.2 mg/ml): 97%; % INHIBITION Wild Type S30 ([33]; 1.0 mg/ml): 99%; % INHIBITION TetM S30 ([34]; 0.06 mg/ml): 90%; % INHIBITION TetM S30 ([34]; 0.2 mg/ml): 97%; % INHIBITION TetM S30 ([34]; 1.0 mg/ml): 99%
